Assay results reported in patent US10555987B2, “GHRH agonists for the treatment of ischemic disorders” (UNIVERSITY OF MIAMI, priority 2012, dated 2020).
“And” between values parts separate entries of the source, which are not always exact repeats. Equal entries are not always repeated. Non-standard residues stand in square brackets, D forms with d. Residues, ends and D or L forms follow the SMILES beside them. *: point of attachment. Phe(F5) = N[C@@H](Cc1c(F)c(F)c(F)c(F)c1F)C(=O)O; Desaminotyrosyl = O=C(CCc1ccc(O)cc1)*; NMeY = CN[C@@H](Cc1ccc(O)cc1)C(=O)O; Agmatine = N=C(N)NCCCCN*; Nle = CCCC[C@H](N)C(=O)O; Orn = NCCC[C@H](N)C(=O)O; Abu = CC[C@H](N)C(=O)O; GABA = NCCCC(=O)O

Legend:
GH release [1] = test: In vivo endocrine activity, GH release after subcutaneous administration (Table 9); conditions: rat; for Stimulation of growth hormone levels after subcutaneous administration (in words): s.c.; for GH releasing potency relative to JI-38 (=1): subcutaneous (s.c.) injection
Experimental: Subcutaneous Administration. Adult male rats were used and anesthetized with pentobarbital (6 mg/100 g, b.w.), by i.p. injection. […] Blood samples were taken from the jugular vein 5, 15 and/or 30 minutes after the injection. The blood samples were centrifuged, plasma was removed and the GH level was measured byELISA. The results are summarized in terms of potency in Table 9.

GH release [2] = test: GH releasing potency in vivo, subcutaneous administration (Example 14, Table 12); set-up: species or system rat; conditions: for Serum GH level at selected time after injection (ng/ml), 0 min / Serum GH level at selected time after injection (ng/ml), 15 min / Serum GH level at selected time after injection (ng/ml), 30 min: male rats, dose 3 μg/kg, mean ± SEM
How it was run: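 Potency is expressed relative to GHRH(1-29)NH2 and JI-38 (each = 1), via equivalent GHRH(1-29)NH2 dose read from a standard curve. Peptides in 5% mannitol given i.v. or s.c. to anaesthetised male Sprague-Dawley rats (200-250 g); serum GH measured by ELISA at selected times.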

GHRH receptor [3] = biological target: T1, GHRH receptor (Homo sapiens, UniProt Q02643); test: Receptor binding in vitro, 125I-labeled [His1,Nle27]-hGHRH(1-32)NH2, membrane receptors of human anterior pituitary cells (Table 14); conditions: for Relative affinity (Binding potency) compared to JI-38: JI-38 = 1; for Relative affinity (Binding potency) compared to hGHRH(1-29): hGHRH(1-29)NH2 = 1
T1 sequence (Q02643 23-423): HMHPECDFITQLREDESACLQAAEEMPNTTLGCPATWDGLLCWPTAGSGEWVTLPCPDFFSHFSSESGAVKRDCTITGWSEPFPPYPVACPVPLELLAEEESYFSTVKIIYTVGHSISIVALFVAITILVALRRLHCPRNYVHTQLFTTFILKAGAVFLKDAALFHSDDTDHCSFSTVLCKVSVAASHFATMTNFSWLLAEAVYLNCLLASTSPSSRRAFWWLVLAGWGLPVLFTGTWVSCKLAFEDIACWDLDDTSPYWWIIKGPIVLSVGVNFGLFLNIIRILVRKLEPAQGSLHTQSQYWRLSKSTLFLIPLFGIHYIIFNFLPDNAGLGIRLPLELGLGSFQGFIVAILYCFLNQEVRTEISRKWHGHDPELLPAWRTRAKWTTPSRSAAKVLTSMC
Text: Normal human pituitary was purchased from the National Hormone and Peptide Program (UCLA Medical Center, Torrance, Calif.).

GHRH receptor [4] = biological target: T1, GHRH receptor; test: GHRH receptor binding, competition with 125I-labeled JV-1-42, human pituitary membrane homogenates (Table 7); set-up: Normal human pituitaries were purchased from the National Hormone and Peptide Program; tissue National Hormone and Peptide Program (A.F. Parlow, Harbor-UCLA Medical Center, Torrance, Calif.); host or cells: normal human pituitary, membrane fraction; conditions: JI-38 = 1, Table 7
Text: Normal human pituitaries were purchased from the National Hormone and Peptide Program (A.F. Parlow, Los Angeles, County Harbor-UCLA Medical Center, Torrance, Calif.).

[5] = test system: myocardial infarction (Fisher-344 rats); test: Serial echocardiography after MI, compared to JI-38 (Example 15, Table 15); format: in vivo, rat; set-up: key to LVEDD: Left Ventricular End Diastolic Diameter / LVESD: Left Ventricular End Systolic Diameter / VD: Ventricular Diastole / VS: Ventricular Systole / EF: Ejection Fraction / FS: Fraction Shortening: ↓: downward arrow denotes lower than JI-38; ↑: upward arrow denotes greater than JI-38; =denotes same as JI-38; ⬇⬇: double arrow denotes greater effect; ⬆⬆: double arrow denotes greater effect; conditions: for EF: Ejection Fraction / FS: Fraction Shortening / LVEDD: Left Ventricular End Diastolic Diameter / LVESD: Left Ventricular End Systolic Diameter / VD: Ventricular Diastole / VS: Ventricular Systole: in comparison to JI-38
How it was run: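 Female 6-month-old Fisher-344 rats with permanent left coronary artery ligation received placebo, JI-38 or GHRH agonists subcutaneously twice daily from 2 h post-surgery (10 per group). Under 2% isoflurane, M-mode LVEDD, LVESD and FS plus long-axis EF were measured at baseline, 2 days, 1, 2 and 4 weeks.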

Structure (SMILES) | Stimulation of growth hormone levels after subcutaneous administration (in words) (GH release [1]) | GH releasing potency relative to JI-38 (=1) (GH release [1]; 15 min after) | GH releasing potency relative to JI-38 (=1) (GH release [1]; 30 min after) | potency as compared to JI-38 in both i.v. and s.c. tests (GH release [2]) | Serum GH level at selected time after injection (ng/ml), 0 min (GH release [2]; s.c.) | Serum GH level at selected time after injection (ng/ml), 15 min (GH release [2]; s.c.) | Serum GH level at selected time after injection (ng/ml), 30 min (GH release [2]; s.c.) | Relative potency compared to GHRH(1-29), 15 min (GH release [2]; s.c.) | Relative potency compared to GHRH(1-29), 30 min (GH release [2]; s.c.) | Relative affinity (Binding potency) compared to hGHRH(1-29) (GHRH receptor [3]) | Relative affinity (Binding potency) vs JI-38 (GHRH receptor [4]) | EF: Ejection Fraction [5] | FS: Fraction Shortening [5] | LVEDD: Left Ventricular End Diastolic Diameter [5] | LVESD: Left Ventricular End Systolic Diameter [5] | VD: Ventricular Diastole [5] | VS: Ventricular Systole [5] | also measured
CCCC[C@H](NC(=O)[C@@H](NC(=O)[C@H](CC(=O)O)NC(=O)[C@H](CCC(N)=O)NC(=O)[C@H](CC(C)C)NC(=O)[C@H](CC(C)C)NC(=O)[C@H](CCCN)NC(=O)[C@H](CCCNC(=N)N)NC(=O)[C@H](C)NC(=O)[C@H](CO)NC(=O)[C@H](CC(C)C)NC(=O)[C@H](CCC(N)=O)NC(=O)[C@H](CC)NC(=O)[C@H](CC(C)C)NC(=O)[C@@H](NC(=O)[C@H](CCCN)NC(=O)[C@H](CCCNC(=N)N)NC(=O)[C@H](Cc1ccc(O)cc1)NC(=O)[C@H](CO)NC(=O)[C@H](CC(N)=O)NC(=O)[C@@H](NC(=O)[C@H](Cc1c(F)c(F)c(F)c(F)c1F)NC(=O)[C@@H](NC(=O)[C@H](C)NC(=O)[C@H](CC(=O)O)NC(=O)[C@@H](C)NC(=O)CCc1ccc(O)cc1)[C@@H](C)CC)[C@@H](C)O)C(C)C)[C@@H](C)CC)C(=O)N[C@@H](CO)C(=O)N[C@@H](CCCNC(=N)N)C(=O)NCCCC(N)=O [Peptide P-25502, [Dat^1, D-Ala^2, Fpa5^6, Orn^12, Abu^15, Orn^21, Nle^27, Gab^30]hGHRH(1-30)NH2] (Desaminotyrosyl-[dA]DAI[Phe(F5)]TNSYR[Orn]VL[Abu]QLSAR[Orn]LLQDI[Nle]SR[GABA]-NH2) | stimulated greater growth hormone levels than hGHRH or JI-38 | 1.10 | 0.94 | increased potency as compared to JI-38 | 61.7 ± 8.1 ng/mL | 266.7 ± 21^ ng/ml | 153.2 ± 33.3 ng/mL | 76.5 | 152.3 | 3.54 | 13.18 | = | = | = | = | ↑ | ↑ | Relative potency compared to JI-38, 15 min (GH release [2]; s.c.): 1.21; Relative potency compared to JI-38, 30 min (GH release [2]; s.c.): 1.36; Relative GH-releasing potency compared to JI-38 in s.c. tests (fold, range over time points) (GH release [2]; s.c., time not specified, listed as MR-502): 1.2-1.4; Relative affinity (Binding potency) compared to JI-38 (GHRH receptor [3]): 1.27
CCCC[C@H](NC(=O)[C@@H](NC(=O)[C@H](CC(=O)O)NC(=O)[C@H](CCC(N)=O)NC(=O)[C@H](CC(C)C)NC(=O)[C@H](CC(C)C)NC(=O)[C@H](CCCN)NC(=O)[C@H](CCCNC(=N)N)NC(=O)[C@H](C)NC(=O)[C@H](CO)NC(=O)[C@H](CC(C)C)NC(=O)[C@H](CCC(N)=O)NC(=O)[C@H](CC)NC(=O)[C@H](CC(C)C)NC(=O)[C@@H](NC(=O)[C@H](CCCN)NC(=O)[C@H](CCCNC(=N)N)NC(=O)[C@H](Cc1ccc(O)cc1)NC(=O)[C@H](CO)NC(=O)[C@H](CCC(N)=O)NC(=O)[C@@H](NC(=O)[C@H](Cc1ccccc1)NC(=O)[C@@H](NC(=O)[C@H](C)NC(=O)[C@H](CC(=O)O)NC(=O)[C@H](C)NC(=O)[C@H](Cc1ccc(O)cc1)NC)[C@@H](C)CC)[C@@H](C)O)C(C)C)[C@@H](C)CC)C(=O)N[C@@H](CC(=O)O)C(=O)NCCCCNC(=N)N [Peptide P-20356, [N—Me-Tyr^1, Gln^8, Orn^12, Abu^15, Orn^21, Nle^27, Asp^28, Agm^29]hGHRH(1-29) NH2] (H-[NMeY]ADAIFTQSYR[Orn]VL[Abu]QLSAR[Orn]LLQDI[Nle]D-Agmatine) | stimulated greater growth hormone levels than hGHRH or JI-38 | 1.72 | 1.09 | increased potency as compared to JI-38 | 25.3 ± 3.9 ng/mL | 305.4 ± 40.0 ng/mL | 152.4 ± 21.8 ng/mL | 91.2 | 150.9 | 7.50 | 16.11 | = | ⬆⬆ | ⬇⬇ | ⬇⬇ | = | = | Relative potency compared to JI-38, 15 min (GH release [2]; s.c., listed as MR-356): 1.4 and 1.45; Relative potency compared to JI-38, 30 min (GH release [2]; s.c., listed as MR-356): 1.4 and 1.35; Relative affinity (Binding potency) compared to JI-38 (GHRH receptor [3]; listed as MR-356): 2.7 and 2.69; GHRH receptor binding affinity (in words) (GHRH receptor [3]; compared to JI-38): improved receptor binding affinity; cardiac dimensions (LVEDD and LVESD) ([5]; after MI): reduced cardiac dimensions; cardiac performance (EF and FS) ([5]; after MI): substantial improvement on cardiac performance
